Experimental data as given in ChEMBL document CHEMBL1145722, “Triterpene saponins from Cyclamen mirabile and their biological activities” (1997).
≈ marks a conversion by molar mass, not a printed value.

Tests used:
Type in all cases: functional
[1] = system: Staphylococcus aureus; experiment: Antibacterial activity against Staphylococcus aureus ATCC 29213 by microtiter-tube dilution method
[2] = system: Enterococcus faecalis; experiment: Antibacterial activity against Enterococcus faecalis ATCC 29212 by microtiter-tube dilution method
[3] = system: Escherichia coli; experiment: Antibacterial activity against Escherichia coli ATCC 25922 by microtiter-tube dilution method
[4] = system: Pseudomonas aeruginosa; experiment: Antibacterial activity against Pseudomonas aeruginosa ATCC 27853 by microtiter-tube dilution method
[5] = system: Candida albicans; experiment: Antifungal activity against Candida albicans by microtiter-tube dilution method
[6] = system: Pichia kudriavzevii; experiment: Antifungal activity against Candida krusei by microtiter-tube dilution method
[7] = system: Candida parapsilosis; experiment: Antifungal activity against Candida parapsilosis by microtiter-tube dilution method; details: Lodderomyces parapsilosis
[8] = system: Kluyveromyces marxianus; experiment: Antifungal activity against Candida pseudotropicalis by microtiter-tube dilution method
[9] = system: Candida albicans; experiment: Antifungal activity against Candida stellatoidea by microtiter-tube dilution method
[10] = system: Candida tropicalis; experiment: Antifungal activity against Candida tropicalis by microtiter-tube dilution method
[11] = system: Cryptococcus neoformans; experiment: Antifungal activity against Cryptococcus neoformans by microtiter-tube dilution method
[12] = Uterocontractile activity in rat uterus assessed as contraction at 7.4 uM relative to acetylcholine
[13] = Uterocontractile activity in rat uterus assessed as contraction at 8.6 uM relative to acetylcholine
[14] = Uterocontractile activity in rat uterus assessed as contraction at 6.5 uM relative to acetylcholine
[15] = Uterocontractile activity in rat uterus assessed as contraction at 7.5 uM relative to acetylcholine
[16] = Uterocontractile activity in rat uterus assessed as contraction at 20 uM relative to acetylcholine
[17] = Uterocontractile activity in rat uterus assessed as contraction at 6.4 uM relative to acetylcholine
[18] = Uterocontractile activity in rat uterus assessed as contraction at 19 uM relative to acetylcholine

| MIC [1] [µg/mL] | MIC [2] [µg/mL] | MIC [3] [µg/mL] | MIC [4] [µg/mL] | MIC [5] [µg/mL] | MIC [6] [µg/mL] | MIC [7] [µg/mL] | MIC [8] [µg/mL] | MIC [9] [µg/mL] | MIC [10] [µg/mL] | MIC [11] [µg/mL] | SMILES | Activity [12] [%] | Activity [13] [%] | Activity [14] [%] | Activity [15] [%] | Activity [16] [%] | Activity [17] [%] | Activity [18] [%] |
| --- | --- | --- | --- | --- | --- | --- | --- | --- | --- | --- | --- | --- | --- | --- | --- | --- | --- | --- |
| > 400 | > 400 | > 400 | > 400 |  |  |  |  |  |  |  | CC1(C)[C@@H](O[C@@H]2OC[C@H](O[C@@H]3O[C@H](CO[C@@H]4O[C@H](CO)[C@@H](O)[C@H](O)[C@H]4O)[C@@H](O)[C@H](O)[C@H]3O[C@@H]3OC[C@H](O)[C@H](O)[C@H]3O)[C@H](O)[C@H]2O[C@@H]2O[C@H](CO)[C@@H](O)[C@H](O)[C@H]2O)CC[C@]2(C)[C@H]3CC[C@]45OC[C@@]6(CC[C@](C)(C=O)C[C@H]64)[C@H](O)C[C@@]5(C)[C@]3(C)CC[C@@H]12 [ISOCYCLAMIN] |  |  | 0.1 |  | 28.3 |  |  |
| > 400 | > 400 | > 400 | > 400 |  |  |  |  |  |  |  | CC1(C)[C@@H](O[C@@H]2OC[C@H](O[C@@H]3O[C@H](CO[C@@H]4O[C@H](CO)[C@@H](O)[C@H](O)[C@H]4O)[C@@H](O)[C@H](O)[C@H]3O[C@@H]3OC[C@H](O)[C@H](O)[C@H]3O)[C@H](O)[C@H]2O[C@@H]2O[C@H](CO)[C@@H](O)[C@H](O)[C@H]2O)CC[C@]2(C)[C@H]3CC=C4[C@@H]5C[C@]6(C)CC[C@]5(COC6=O)[C@H](O)C[C@@]4(C)[C@]3(C)CC[C@@H]12 [MIRABILIN LACTONE] |  |  | 0.6 |  | 5.7 |  |  |
| > 400 | > 400 | > 400 | > 400 |  |  |  |  |  |  |  | CC1(C)[C@@H](O[C@@H]2OC[C@H](O[C@@H]3O[C@H](CO[C@@H]4O[C@H](CO)[C@@H](O)[C@H](O)[C@H]4O)[C@@H](O)[C@H](O)[C@H]3O[C@@H]3OC[C@H](O)[C@H](O)[C@H]3O)[C@H](O)[C@H]2O[C@@H]2O[C@H](CO)[C@@H](O)[C@H](O)[C@H]2O)CC[C@]2(C)[C@H]3CC=C4[C@@H]5C[C@@](C)(C(=O)O)CC[C@]5(CO)[C@H](O)C[C@@]4(C)[C@]3(C)CC[C@@H]12 [MIRABILIN] |  |  |  |  |  | 0.7 | 1.1 |

Further lines, the molecule ahead of its results:

| SMILES | MIC [1] [µg/mL] | MIC [2] [µg/mL] | MIC [3] [µg/mL] | MIC [4] [µg/mL] | MIC [5] [µg/mL] | MIC [6] [µg/mL] | MIC [7] [µg/mL] | MIC [8] [µg/mL] | MIC [9] [µg/mL] | MIC [10] [µg/mL] | MIC [11] [µg/mL] | Activity [12] [%] | Activity [13] [%] | Activity [14] [%] | Activity [15] [%] | Activity [16] [%] | Activity [17] [%] | Activity [18] [%] |
| --- | --- | --- | --- | --- | --- | --- | --- | --- | --- | --- | --- | --- | --- | --- | --- | --- | --- | --- |
| C[C@]1(C=O)CC[C@]23CO[C@@]4(CC[C@@H]5[C@@]6(C)CC[C@H](O[C@@H]7OC[C@H](O[C@@H]8O[C@H](CO)[C@@H](O)[C@H](O)[C@H]8O[C@@H]8OC[C@H](O)[C@H](O)[C@H]8O)[C@H](O)[C@H]7O[C@@H]7O[C@H](CO)[C@@H](O)[C@H](O)[C@H]7O)[C@@](C)(CO)[C@@H]6CC[C@@]5(C)[C@]4(C)C[C@H]2O)[C@@H]3C1 [CYCLACOUMIN] | > 400 | > 400 | > 400 | > 400 | 160 (≈ 149 µM) | > 320 | 80 (≈ 74.3 µM) | 160 (≈ 149 µM) | 160 (≈ 149 µM) | 160 (≈ 149 µM) | 80 (≈ 74.3 µM) | 58.2 |  |  |  |  |  |  |
| CC1(C)[C@@H](O[C@@H]2OC[C@H](O[C@@H]3O[C@H](CO)[C@@H](O)[C@H](O)[C@H]3O)[C@H](O)[C@H]2O[C@@H]2O[C@H](CO)[C@@H](O)[C@H](O)[C@H]2O)CC[C@]2(C)[C@H]3CC[C@]45OC[C@@]6(CC[C@](C)(C=O)C[C@H]64)[C@H](O)C[C@@]5(C)[C@]3(C)CC[C@@H]12 [CYCLAMINORIN] | > 400 | > 400 | > 400 | > 400 | 160 (≈ 172 µM) | > 320 | 80 (≈ 86.1 µM) | 160 (≈ 172 µM) | 160 (≈ 172 µM) | 160 (≈ 172 µM) | 80 (≈ 86.1 µM) |  | 46.2 |  |  |  |  |  |
| CC1(C)[C@@H](O[C@@H]2OC[C@H](O[C@@H]3O[C@H](CO)[C@@H](O)[C@H](O[C@@H]4O[C@H](CO)[C@@H](O)[C@H](O)[C@H]4O)[C@H]3O[C@@H]3OC[C@@H](O)[C@H](O)[C@H]3O)[C@H](O)[C@H]2O[C@@H]2O[C@H](CO)[C@@H](O)[C@H](O)[C@H]2O)CC[C@]2(C)[C@H]3CC[C@]45OC[C@@]6(CC[C@](C)(C=O)C[C@H]64)[C@H](O)C[C@@]5(C)[C@]3(C)CC[C@@H]12 [CYCLAMIN] | > 400 | > 400 | > 400 | > 400 |  |  |  |  |  |  |  |  |  | 48.4 |  |  |  |  |
| CC1(C)[C@@H](O[C@@H]2OC[C@H](O[C@@H]3O[C@H](CO)[C@@H](O)[C@H](O)[C@H]3O[C@@H]3OC[C@H](O)[C@H](O)[C@H]3O)[C@H](O)[C@H]2O[C@@H]2O[C@H](CO)[C@@H](O)[C@H](O)[C@H]2O)CC[C@]2(C)[C@H]3CC[C@]45OC[C@@]6(CC[C@](C)(C=O)C[C@H]64)[C@H](O)C[C@@]5(C)[C@]3(C)CC[C@@H]12 [DEGLUCOCYCLAMIN] | > 400 | > 400 | > 400 | > 400 | 160 (≈ 151 µM) | > 320 | 80 (≈ 75.4 µM) | 160 (≈ 151 µM) | 160 (≈ 151 µM) | 160 (≈ 151 µM) | 80 (≈ 75.4 µM) |  |  |  | 36.7 |  |  |  |
